Data published in article PMC6100582 (Molecules : A Journal of Synthetic Chemistry and Natural …, 2018).
≈ marks a conversion by molar mass, not a printed value. Read-outs that look alike come from different tables or passages of the source.

Key:
[1] = test system: Mycobacterium tuberculosis H37Ra; assay: Antimycobacterial susceptibility assay (MIC determination); assay type: cell-based; details: 168 h, 7 days, 37 °C, alamarBlue
Description: At log phase growth, a culture sample (10 mL) was centrifuged at 15,000 rpm/20 min using a bench-top centrifuge (MPW-65R, MPW Med Instruments, Poland). Following removal of the supernatant, the pellet was washed in fresh Middlebrook 7H9GC broth and re-suspended in fresh, ODAC-supplemented MB (10 mL). The turbidity was adjusted to match McFarland standard No. 1 (3 × 10^8 CFU) with MB broth. A further 1:20 dilution of the culture was then performed in MB broth. The antimicrobial susceptibility of M. tuberculosis was investigated in a 96-well plate format. In these experiments, sterile deionised water (300 µl) was added to all outer-perimeter wells of the plates to minimize evaporation of the medium in the test wells during incubation. Each evaluated compound (100 µL) was incubated with M. tuberculosis (100 µl). Dilutions of each compound were prepared in duplicate. For all synthesized compounds, final concentrations ranged from 1000 μg/mL to 8 μg/mL. All compounds were dissolved in DMSO, and subsequent dilutions were made in supplemented MB. […] Following incubation, 10% of alamarBlue (Difco, Lawrence, KS, USA) was mixed into each well, and readings at 570 nm and 600 nm were taken, initially for background subtraction and subsequently after 24 h reincubation. […] For non-interfering compounds, a blue colour in the well was interpreted as the absence of growth, and a pink colour was scored as growth.

[2] = test system: Mycobacterium marinum CAMP 5644; assay: as above; assay type: cell-based; details: Mycobacterium marinum, CAMP5644, 504 h
Description: The broth dilution micro-method in Middlebrook 7H9 medium (Difco, Lawrence, KS, USA) supplemented with ADC Enrichment (Becton, Dickinson and Comp.) was used to determine MIC as previously described. […] Bacterial inocula were prepared by transferring colonies from culture to sterile water. The cell density was adjusted to 0.5 McFarland units using a densitometer (Densi-La-Meter, LIAP, Riga, Latvia). The final inoculum was made by 1:1000 dilution of the suspension with sterile water. Drug-free controls, sterility controls and controls consisted of medium and DMSO (Sigma-Aldrich, St. Louis, MO, USA) alone were included. […] Ciprofloxacin (CIP), rifampicin (RIF) and isoniazid (INH) (Sigma-Aldrich, St. Louis, MO, USA) were used as the standards.

[3] = test system: Capan-1 (pancreatic adenocarcinoma); assay: Antiproliferative screening (cytostatic activity); assay type: cell-based; details: Homo sapiens, CAPAN-1, 72 h, read-out: IC50 Capan-1
Description: (§1) All human tumor cell lines were acquired from the American Type Culture Collection (ATCC, Manassas, VA, USA), except for the DND-41 cell line which was purchased from the Deutsche Sammlung von Mikroorganismen und Zellkulturen (DSMZ Leibniz-Institut, Braunschweig, Germany) and the Hap1 cell line which was purchased from Horizon Discovery (Waterbeach, UK). […] All media were supplemented with 10% FBS (HyClone, GE Healthcare Life Sciences, USA). […] After overnight incubation, cells were treated with test compounds at four different concentrations ranging from 100 to 0.8 µM. […] Images were taken every 3 h, with one field image per well under 10× magnification. All compounds were tested with duplicate data points and averaged.

[4] = test system: HCT-116 (colorectal carcinoma); assay: Antiproliferative screening (cytostatic activity); assay type: cell-based; details: Homo sapiens, HCT-116, 72 h, read-out: IC50 HCT-116
Description: as §1

[5] = test system: K-562 (chronic myeloid leukemia); assay: Antiproliferative screening (cytostatic activity); assay type: cell-based; details: Homo sapiens, K562, 72 h, read-out: IC50 K-562
Description: as §1

MM.1S (multiple myeloma) = assay: Antiproliferative screening (cytostatic activity); assay type: cell-based; details: Homo sapiens, MM1.S, 72 h, read-out: IC50 MM.1S
Description: as §1

[6] = test system: NCI-H460 (lung carcinoma); assay: Antiproliferative screening (cytostatic activity); assay type: cell-based; details: Homo sapiens, NCI-H460, 72 h, read-out: IC50 NCI-H460
Description: as §1

[7] = test system: Z-138 (non-Hodgkin lymphoma); assay: Antiproliferative screening (cytostatic activity); assay type: cell-based; details: Homo sapiens, Z-138, 72 h, read-out: IC50 Z-138
Description: as §1

[8] = test system: HL-60 (acute myeloid leukemia); assay: Antiproliferative screening (cytostatic activity); assay type: cell-based; details: Homo sapiens, HL-60, 72 h, read-out: IC50 HL-60
Description: (§2) Cytostatic activity was evaluated in vitro on nine different types of human tumor cell lines: Capan-1, Hap1, HCT-116, and NCI-H460, as well as hematological tumors such as DND-41, HL-60, K-562, MM.1S and Z-138 as described previously. All human tumor cell lines were acquired from the American Type Culture Collection (ATCC, Manassas, VA, USA), except for the DND-41 cell line which was purchased from the Deutsche Sammlung von Mikroorganismen und Zellkulturen (DSMZ Leibniz-Institut, Braunschweig, Germany) and the Hap1 cell line which was purchased from Horizon Discovery (Waterbeach, UK). Capan-1, Hap1, HL-60, K-562, Z-138, MM.1S and DND-41 were cultured in Iscove′s Modified Dulbecco′s Medium (IMDM, Gibco Life Technologies, Gaithersburg, MD, USA), HCT-116 were grown in McCoy′s 5A Medium (Gibco Life Technologies) and NCI-H460 were cultured in RPMI (Gibco Life Technologies). All media were supplemented with 10% FBS (HyClone, GE Healthcare Life Sciences, USA). Adherent cell lines HCT-116, Hap1, NCI-H460, and Capan-1 cells were seeded at a density between 400 and 1250 cells per well, in 384-well, black-walled, clear-bottomed tissue culture plates (Greiner Bio-One, Kremsmünster, Germany). After overnight incubation, cells were treated with test compounds at four different concentrations ranging from 100 to 0.8 µM. Suspension cell lines HL-60, K-562, Z-138, MM.1S, and DND-41 were seeded at densities ranging from 3000 to 10,000 cells per well in 384-well, black-walled, clear-bottomed tissue culture plates containing test compounds at the same four concentrations. The plates were incubated and monitored at 37 °C for 72 h in an IncuCyte (Essen BioScience Inc., Ann Arbor, MI, USA) for real-time imaging. Images were taken every 3 h, with one field image per well under 10× magnification. All compounds were tested with duplicate data points and averaged. […]

[9] = test system: Hap1 (chronic myeloid leukemia); assay: Antiproliferative screening (cytostatic activity); assay type: cell-based; details: Homo sapiens, HAP1, 72 h, read-out: IC50 Hap1
Description: as §2

[10] = test system: DND-41 (acute lymphoblastic leukemia); assay: Antiproliferative screening (cytostatic activity); assay type: cell-based, human; details: Homo sapiens, DND41, 72 h, 72 h, read-out: IC50 DND-41
Description: as §2

[11] = DXT and STS values in nM (footnote)

## O=C(O)c1cn(C2CC2)c2cc(N3CCNCC3)c(F)cc2c1=O [CIP, ciprofloxacin, reference compound]
[1]
  MIC: 16 µg/mL (≈ 48.3 µM)
[2]
  MIC: 0.3 µg/mL (≈ 0.905 µM)

## COc1cc(NC(C)CCCNC(=O)CCC(=O)Nc2cccc(F)c2)c2ncccc2c1 (centres unmarked) [Compound 5a, N-(3-Fluorophenyl)-N′-{4-[(6-methoxyquinolin-8-yl)amino]pentyl}butanediamide]
other
  melting point: 140 to 142 °C

## COc1cc(NC(C)CCCNC(=O)CCC(=O)Nc2ccc(F)cc2)c2ncccc2c1 (centres unmarked) [Compound 5b, N-(4-Fluorophenyl)-N′-{4-[(6-methoxyquinolin-8-yl)amino]pentyl}butanediamide]
other
  melting point: 118 to 120 °C

## COc1cc(NC(C)CCCNC(=O)CCC(=O)Nc2cccc(Cl)c2)c2ncccc2c1 (centres unmarked) [Compound 5c, N-(3-Chlorophenyl)-N′-{4-[(6-methoxyquinolin-8-yl)amino]pentyl}butanediamide]
other
  melting point: 156 to 158 °C

## COc1cc(NC(C)CCCNC(=O)CCC(=O)Nc2ccc(Cl)cc2)c2ncccc2c1 (centres unmarked) [Compound 5d, N-(4-Chlorophenyl)-N′-{4-[(6-methoxyquinolin-8-yl)amino]pentyl}butanediamide]
other
  melting point: 152 to 153 °C

## COc1cc(NC(C)CCCNC(=O)CCC(=O)Nc2cccc(C(F)(F)F)c2)c2ncccc2c1 (centres unmarked) [Compound 5e, N′-{4-[(6-Methoxyquinolin-8-yl)amino]pentyl}-N-[3-(trifluoromethyl)phenyl]butanediamide]
other
  melting point: 146 to 149 °C

## COc1cc(NC(C)CCCNC(=O)CCC(=O)Nc2ccc(C(F)(F)F)cc2)c2ncccc2c1 (centres unmarked) [Compound 5f, N′-{4-[(6-Methoxyquinolin-8-yl)amino]pentyl}-N-[4-(trifluoromethyl)phenyl]butanediamide]
other
  melting point: 163 to 165 °C

## CC(=O)O[C@@]12CO[C@@H]1C[C@H](O)[C@@]1(C)C(=O)[C@H](O)C3=C(C)[C@@H](OC(=O)[C@H](O)[C@@H](NC(=O)OC(C)(C)C)c4ccccc4)C[C@@](O)([C@@H](OC(=O)c4ccccc4)[C@H]21)C3(C)C [DXT, docetaxel, reference compound]
[3]; [11]
  IC50: 0.75 nM
[4]; [11]
  IC50: 7.66 nM
[5]; [11]
  IC50: 1.22 nM
MM.1S (multiple myeloma); [11]
  IC50: 3.38 nM
[6]; [11]
  IC50: 1.3 nM
[7]; [11]
  IC50: 5.42 nM
[8]; [11]
  IC50: 1.24 nM
[9]; [11]
  IC50: 1.17 nM
[10]; [11]
  IC50: 0.94 nM

## COc1cc([C@@H]2c3cc4c(cc3[C@@H](O[C@@H]3O[C@@H]5CO[C@@H](C)O[C@H]5[C@H](O)[C@H]3O)[C@H]3COC(=O)[C@H]23)OCO4)cc(OC)c1O [EPEG, etoposide, reference compound]
[3]; IncuCyte imaging
  IC50: 150 nM
[4]; IncuCyte imaging
  IC50: 1350 nM
[5]; IncuCyte imaging
  IC50: 10 nM
MM.1S (multiple myeloma); IncuCyte imaging
  IC50: 970 nM
[6]; IncuCyte imaging
  IC50: 90 nM
[7]; IncuCyte imaging
  IC50: 20 nM
[8]; IncuCyte imaging
  IC50: 30 nM
[9]; IncuCyte imaging
  IC50: 40 nM
[10]; IncuCyte imaging
  IC50: 30 nM

## NNC(=O)c1ccncc1 [INH, isoniazid, reference compound]
[1]
  MIC: 5 µg/mL (≈ 36.5 µM)
[2]
  MIC: 64 µg/mL (≈ 467 µM)

## CO[C@H]1/C=C/O[C@@]2(C)Oc3c(C)c(O)c4c(O)c(c(/C=N/N5CCN(C)CC5)c(O)c4c3C2=O)NC(=O)/C(C)=C\C=C\[C@H](C)[C@H](O)[C@@H](C)[C@@H](O)[C@@H](C)[C@H](OC(C)=O)[C@@H]1C [RIF, rifampicin, reference compound]
[2]
  MIC: 2.2 µg/mL (≈ 2.67 µM)

## CN[C@@H]1C[C@H]2O[C@@](C)([C@@H]1OC)n1c3ccccc3c3c4c(c5c6ccccc6n2c5c31)C(=O)NC4 [STS, staurosporine, reference compound]
[8]; [11]
  IC50: 13.1 nM
[9]; [11]
  IC50: 3.56 nM
[10]; [11]
  IC50: 6.96 nM
